In paper PMC12470129, “New Derivatives of 2-(Cyclohexylamino)thiazol-4(5H)-one as Strong Inhibitors of 11β-Hydroxysteroid Dehydrogenase Type 1: Synthesis, Antiproliferative and Redox-Modulating Activity” (International Journal of Molecular Sciences, 2025):
“Also recorded” adds a separate entry of the source.

Key:
[1] = target: T1, 11β-HSD1 (Homo sapiens, UniProt P28845); assay: 11β-HSD1 inhibition assay (cortisone to cortisol, human liver microsomes, cortisol ELISA); type: biochemical; conditions: for inhibition at 10 µM: at a concentration of 10 µM; for inhibition at 10 µM / IC50: human liver microsomes; for IC50: unit printed in text (b17-b19); for selectivity 11β-HSD1 versus 11β-HSD2: compared on % inhibition at 10 µM, versus carbenoxolone
T1 construct: human liver microsomes were used as a source of the 11β‐HSD1 enzyme; tissue XenoTech Lot No.1410013; host or cells: pooled human liver microsomes, mixed gender
Description: 11β-Hydroxysteroid dehydrogenase type 1 and type 2 inhibition assays were performed as previously described. For more details, see the Supplementary Materials.
Detailed protocols of enzyme inhibition assays
1. Inhibition of 11β‐HSD Assays […]
tetrasodium salt, phosphate buffer powder, (Sigma‐Aldrich, Poznań, Poland), Pooled human liver microsomes, mixed gender, 1 mL, 20 mg/mL Lot No.1410013 ‐ XenoTech, Cortisol Elisa Ref DkO001 Lot […]
No. L211008799 – (Cloud‐Clone Corp., Wuhan, China), PBS Lot No. H161008 (Pan Biotech, Aidenbach, […]
liver microsomes were used as a source of the 11β‐HSD1 enzyme. Standard 96‐well microplates were filled with a reagent mixture: cortisone/NADPH (20 μ l, to obtain a final concentration of 200 nM / 2 μ M), […]
water. The resulting solution (final volume 100 μ l) was incubated for 2.5 h at 37°C. To stop the reaction, 10 μl of a 100 μM solution of 18β‐glycyrrhetinic acid in PBS was added. Cortisol levels resulting from the reaction were measured using a commercially available ELISA kit.
(§1) Solvents and reagents: 18‐beta‐glycyrrhetinic acid – (Acros Organic, Geel, Belgium), cortisone, NAD cofactor, phosphate buffer powder (Sigma‐Aldrich, Poznań, Poland), Human Kidney Microsomes, […]
(§2) ‐ (DiaMetra, Spello, Italy), Enzyme‐Linked Immunosorbent Assay (ELISA) Kit for 11‐Beta‐ Hydroxysteroid Dehydrogenase Type 2 Lot No. L191113457 ‐ (Cloud‐Clone Corp., Wuhan, China), PBS Lot No. H161008 (Pan Biotech, Aidenbach, Germany). […]
(§3) kidney microsomes were used as a source of the 11β‐HSD2 enzyme. Standard 96‐well microplates were filled with a reagent mixture: cortisol/NAD+ (20 μL, to obtain a final concentration of 200 nM / 2 μM), […]
(§4) The resulting solution (final volume of 100 μL) was incubated for 2.5 h at 37°C. […]
(§5) levels were measured using a commercially available ELISA kit.
(§6) 1.3. Determination of IC50 […]
(§7) conditions described in the sections above. Analogous assays without added inhibitors were performed as controls. The IC₅₀ value, defined as the concentration of inhibitor causing a 50% reduction in cortisol or cortisone, was read directly from the graph.

[2] = target: T2, 11β-HSD2 (Homo sapiens, UniProt P80365); assay: 11β-HSD2 inhibition assay (cortisol to cortisone, human kidney microsomes, cortisol ELISA); type: biochemical; conditions: at a concentration of 10 µM
T2 construct: human kidney microsomes were used as a source of the 11β‐HSD2 enzyme; tissue XenoTech Lot No. 1710160; host or cells: human kidney microsomes, mixed gender
T2 sequence (P80365 1-405): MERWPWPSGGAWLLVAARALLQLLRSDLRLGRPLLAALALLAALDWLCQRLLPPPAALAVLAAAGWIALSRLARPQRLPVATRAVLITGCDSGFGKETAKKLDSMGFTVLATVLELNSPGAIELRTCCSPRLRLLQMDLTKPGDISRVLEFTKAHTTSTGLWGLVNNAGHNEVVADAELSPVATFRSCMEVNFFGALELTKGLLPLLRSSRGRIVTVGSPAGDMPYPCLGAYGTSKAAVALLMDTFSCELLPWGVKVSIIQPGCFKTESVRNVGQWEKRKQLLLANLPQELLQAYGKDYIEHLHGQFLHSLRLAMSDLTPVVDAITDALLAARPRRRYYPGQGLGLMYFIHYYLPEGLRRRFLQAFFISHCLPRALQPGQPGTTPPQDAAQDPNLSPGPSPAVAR
Description: 11β-Hydroxysteroid dehydrogenase type 1 and type 2 inhibition assays were performed as previously described. For more details, see the Supplementary Materials. […]
as §1, §2, §3, §4, §5, §6, §7

[3] = tested on: SK-MEL-30 cells; assay: MTS assay, SK-MEL-30; type: cell-based, human; conditions: for cell metabolic activity down-regulated to (MTS): SK-MEL-30, 72 h, strongest effects
Description: (§8) Human fibroblast (BJ; Cat# CRL-2522), human pancreatic cancer (PANC-1; Cat# CRL-1469), human breast cancer (MDA-MB-231; Cat# HTB-26); human brain glioma cells (U-118 MG; Cat# HTB-15), human melanoma (SK-MEL-30; Cat# ACC 151) and human colon carcinoma (Caco-2; Cat# HTB-37) were purchased from ATCC (Manassas, VA, USA) or DSMZ (Braunschweig, Germany). The cell lines were routinely maintained in the medium recommended by the manufacturer—MEM, DMEM, or RPMI (Corning, New York, NY, USA) with L-glutamine, 4.5 g/L glucose, and sodium pyruvate and supplemented with 10% FBS for BJ, PANC-1, MDA-MB-231, U-118 MG, and SK-MEL-30 or 20% FBS for Caco-2. All cell lines were cultured in a humidified CO2 incubator at 37 °C. For assays, cells were seeded at a constant density of 5 × 10^3 cells/0.32 cm^2 for Caco-2, PANC-1, MDA-MB-231, U-118 MG, and SK-MEL-30 or 2 × 10^3 cells/0.32 cm^2 for BJ.
(§9) MTS assay was performed as described elsewhere. Cell lines were seeded in a 96-well plate 24 h prior to treatment. Compounds 3a–3i were tested in a 10–500 µM concentration range and treated for 72 h. Next, the MTS solution was added for 3h and incubated at 37 °C. Absorbance was measured at 590 nm and 620 nm wavelengths using a Synergy H1 microplate reader (BioTek Instruments, San Diego, CA, USA).

[4] = tested on: PANC-1 cells; assay: MTS assay, PANC-1; type: cell-based, human; conditions: PANC-1, 72 h
Description: as §8, §9

[5] = tested on: Caco-2 cells; assay: MTS assay, Caco-2; type: cell-based, human; conditions: for cell metabolic activity down-regulated to (MTS): Caco-2, 72 h, strongest effects
Description: as §8, §9

[6] = tested on: MDA-MB-231 cells; assay: MTS assay, MDA-MB-231; type: cell-based, human; conditions: for cell metabolic activity down-regulated to (MTS): MDA-MB-231, 72 h, strongest effects
Description: as §8, §9

[7] = tested on: U-118 MG cells; assay: MTS assay, U-118 MG; type: cell-based, human; conditions: 72 h
Description: as §8, §9

[8] = tested on: BJ cells; assay: Intracellular redox homeostasis (ROS, RNS, GSH), BJ; type: cell-based, human; conditions: 500 µM, 72 h
Description: as §8
(§10) Based on the MTS assay, a toxic concentration of 500 µM of each compound was selected for redox analysis for all cell lines. Cell lines were seeded at the standard density in 96-well black plates. […] The signal measurement was taken with a Synergy H1 microplate reader (BioTek Instruments, CA, USA).

[9] = tested on: Caco-2 cells; assay: Intracellular redox homeostasis (ROS, RNS, GSH), Caco-2; type: cell-based, human; conditions: Caco-2, 500 µM, 72 h
Description: as §8, §10

[10] = tested on: SK-MEL-30 cells; assay: Intracellular redox homeostasis (ROS, RNS, GSH), SK-MEL-30; type: cell-based, human; conditions: SK-MEL-30, 500 µM, 72 h
Description: as §8, §10

T1 sequence (P28845 whole entry): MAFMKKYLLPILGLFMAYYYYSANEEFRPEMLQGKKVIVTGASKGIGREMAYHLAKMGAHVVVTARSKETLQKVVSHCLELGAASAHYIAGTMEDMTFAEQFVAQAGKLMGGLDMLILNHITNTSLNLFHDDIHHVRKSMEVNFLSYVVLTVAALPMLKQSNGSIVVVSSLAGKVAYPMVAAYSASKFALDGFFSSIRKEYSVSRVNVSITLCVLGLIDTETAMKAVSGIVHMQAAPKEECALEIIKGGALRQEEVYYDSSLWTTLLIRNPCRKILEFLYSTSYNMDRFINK

| SMILES | inhibition at 10 µM [1] | IC50 [1] | inhibition at 10 µM [2] | cell metabolic activity down-regulated to (MTS) [3] | highest increase in proliferation (metabolic activity, MTS) [4] | selectivity 11β-HSD1 versus 11β-HSD2 [1] | concentration at which a decrease in cell viability is observed ([5]; Caco-2, MTS, 72 h) | cell metabolic activity down-regulated to (MTS) [5] | cell metabolic activity down-regulated to (MTS) [6] | highest increase in proliferation (metabolic activity, MTS) [7] | ROS level [8] | ROS level [9] | ROS level [10] | change of cell viability / metabolic activity ([5]; Caco-2, MTS, 72 h, 10–500 µM) | concentration at which a decrease in cell viability / metabolic activity is observed ([6]; MDA-MB-231, MTS, 72 h) | change of cell viability / metabolic activity ([6]; MDA-MB-231, MTS, 72 h, 10–500 µM) | change of cell viability / metabolic activity ([3]; SK-MEL-30, MTS, 72 h, 10–500 µM) |
| --- | --- | --- | --- | --- | --- | --- | --- | --- | --- | --- | --- | --- | --- | --- | --- | --- | --- |
| O=C1N=C(NC2CCCCC2)SC1c1ccccc1 (stereo not drawn) [Compound 3f, 2-(Cyclohexylamino)-5-phenylthiazol-4(5H)-one] | 83.8 ± 4.53% | 0.17 ± 0.035 µM | 40 ± 8.34% | 30–54% | 115–134% | – | – | – | – | – | – | – | – | – | – | – | – |
| CC(C)C1SC(NC2CCCCC2)=NC1=O (stereo not drawn) [Compound 3d, 2-(Cyclohexylamino)-5-isopropylthiazol-4(5H)-one] | 90.4 ± 2.74% | 0.08 ± 0.015 µM | 47 ± 1.67% | 30–54% | – | greater selectivity than the standard compound | above 200 µM | – | – | – | – | – | – | – | – | – | – |
| O=C1N=C(NC2CCCCC2)SC12CCC2 [Compound 3i, 6-(Cyclohexylamino)-5-thia-7-azaspiro [3.4]oct-6-en-8-one] | 87.3 ± 0.99% | 0.09 ± 0.016 µM | 51 ± 0.73% | – | – | – | above 200 µM | 30–54% | 30–54% | 115–134% | increase in ROS | – | – | – | – | – | – |
| CCC1SC(NC2CCCCC2)=NC1=O (stereo not drawn) [Compound 3b, 2-(Cyclohexylamino)-5-ethylthiazol-4(5H)-one] | 68.5 ± 4.28% | 0.57 ± 0.06 µM | 38.3 ± 9.96% | – | – | – | above 200 µM | 30–54% | 30–54% | – | – | increase in ROS production | increase in ROS production | – | – | – | – |
| CCCC1SC(NC2CCCCC2)=NC1=O (stereo not drawn) [Compound 3c, 2-(Cyclohexylamino)-5-propylthiazol-4(5H)-one] | 85.7 ± 4.43% | 0.4 ± 0.005 µM | 47.1 ± 0.82% | 30–54% | – | – | – | – | 30–54% | – | – | – | – | – | – | – | – |
| CC1SC(NC2CCCCC2)=NC1=O (stereo not drawn) [Compound 3a, 2-(Cyclohexylamino)-5-methylthiazol-4(5H)-one] | 27.5 ± 2.12% | > 10 µM | 42 ± 2.5% | – | – | greater inhibitory activity towards 11β-HSD2 than 11β-HSD1 | above 200 µM | – | – | 115–134% | – | increase in ROS production | – | – | – | – | – |
| CC1(C)SC(NC2CCCCC2)=NC1=O [Compound 3e, 2-(Cyclohexylamino)-5,5-dimethylthiazol-4(5H)-one] | 82.6 ± 1.79% | 0.3 ± 0.05 µM | 38.6 ± 5.56% | – | 115–134% | – | above 200 µM | 30–54% | – | – | – | – | – | – | – | – | – |
| O=C1N=C(NC2CCCCC2)SC1c1ccc(Br)cc1 (stereo not drawn) [Compound 3g, 5-(4-Bromophenyl)-2-(cyclohexylamino)thiazol-4(5H)-one] | 90.2 ± 1.59% | 0.07 ± 0.008 µM | 47.2 ± 1.17% | 30–54% | – | greater selectivity than the standard compound | 1 µM | 30–54% | 30–54% | 115–134% | – | – | – | vigorous inhibitory activity | 75 µM | vigorous inhibitory activity | vigorous inhibitory activity |
| O=C1N=C(NC2CCCCC2)SC12CCCCC2 [Compound 3h, 2-(Cyclohexylamino)-1-thia-3-azaspiro [4.5]dec-2-en-4-one] | 94 ± 2.35% | 0.04 ± 0.004 µM | 45.6 ± 5.28% | – | 115–134% | greater selectivity than the standard compound; also recorded: better activity and selectivity than carbenoxolone | – | 30–54% | 30–54% | – | increase in ROS | – | – | – | – | – | – |
